{
  "source": "patent US20120214736A1",
  "about": "“COMPOSITIONS AND METHODS FOR THE MODULATION OF JNK PROTEINS” (Isis Pharmaceuticals, Inc., priority 2006, published 2012)",
  "type_in_all_cases": "cell-based",
  "key": {"human JNK2 mRNA [1]": {"tested_on": "human JNK2 mRNA", "test": "Northern analysis, human JNK2 mRNA in HuVEC cells (time course)", "conditions": "100 nM; 0-72 hours", "protocol": "The human umbilical vein endothilial cell line HuVEC was obtained from Clonetics (Clonetics Corporation Walkersville, Md.). HuVEC cells were routinely cultured in EBM (Clonetics Corporation Walkersville, Md.) supplemented with SingleQuots supplements (Clonetics Corporation, Walkersville, Md.). […] Cells were seeded into 100 mm dishes and incubated overnight at 37° C./5% CO2. (Falcon-Primaria #3872).\n(§1) When cells reached 70% confluency, they were treated with oligonucleotide. For cells grown in 10 cm dishes, cells were washed once with 5 ml PBS and then treated with 5 ml of OPTI-MEM-1 containing 3 ul LIPOFECTIN (Invitrogen Corporation, Carlsbad, Calif.)/100 nM oligonucleotide/ml OPTI-MEM-1. For other oligonucleotide concentrations the oligonucleotide/Lipofectin ration was held constant. […] Cells were harvested 16-24 hours after oligonucleotide treatment.\nIn accordance with the present invention, HuVEC cells were treated with 100 nM ISIS 101759 or the control oligonucleotide and mRNA levels of human JNK2 were monitored over a time-course of 0-72 hours and quantitated by Northern analysis."}, "human JNK2 mRNA [2]": {"tested_on": "human JNK2 mRNA", "test": "Northern analysis, human JNK2 mRNA in HeLa cells (dose response)", "conditions": "10, 50 or 200 nM", "protocol": "The human cervix epithelial adenocarcinoma cell line HeLa was obtained from the American Type Culture Collection (Manassas, Va.). HeLa cells were routinely cultured in Minimum essential medium (Eagle) with 2 mM L-glutamine and Earle's BSS adjusted to contain 1.5 g/L sodium bicarbonate, 0.1 mM non-essential amino acids, and 1.0 mM sodium pyruvate, 90%; fetal bovine serum, 10% at a temperature of 37° C. Cells were seeded into 100 mm dishes and incubated overnight at 37° C./5% CO2\nas §1\nIn accordance with the present invention, HeLa cells were treated with 10, 50 or 200 nM ISIS 101759 or the control oligonucleotide and mRNA levels of human JNK2 were quantitated by Northern analysis."}, "human JNK2 mRNA [3]": {"tested_on": "human JNK2 mRNA", "test": "Northern analysis, human JNK2 mRNA in Jurkat cells (electroporation, dose response)", "conditions": "1, 5 or 20 uM", "protocol": "Jurkat cells were routinely cultured in RPMI Medium 1640 (Gibco/Life Technologies, Gaithersburg, Md.) supplemented with 20% fetal calf serum (Gibco/Life Technologies, Gaithersburg, Md.). Cells were routinely passaged by aspirating media that contained excess cells and replenishing with new media.\nFor electroporation, cells were diluted to 28×10^6 cells/mL and placed into 1 mm electroporation cuvettes. Electroporation is performed by treating with 1-20 μM oligonucleotide, at 160 Volts for 6 msec. The entire electroporated samples are then placed into 5 mL of 10% FBS/RPMI Medium 1640 in 100 mm plates. Plates are then left overnight at 37° C./5% CO2.\nEach sample is then transferred to 15 mL conical tubes and spun down at 1200 rpm for 5 minutes followed by aspiration of the supernatant. Cells are then suspended in 5 mL PBS followed by a second centrifugation at 1200 rpm for 5 minutes followed by aspiration of the supernatant. Cells are then washed and lysed. Following the lysis step, total cellular RNA is then isolated using the RNEASY kit (Qiagen, Santa Clarita, Calif.) as described in other examples herein.\nIn accordance with the present invention, Jurkat cells were treated by electroporation with 1, 5 or 20 uM ISIS 101759 or the control oligonucleotide and mRNA levels of human JNK2 were quantitated by Northern analysis."}},
  "note": "e = 2'-O-(2-methoxyethyl) (MOE); d = 2'-deoxy (DNA)",
  "data": [
    {"substance": "GsCsTsCsAsGsTsGsGsAsCsAsTsGsGsAsTsGsAsG (GCTCAGTGGACATGGATGAG; sugars from the 5' end e5 d10 e5, all phosphorothioate, methylation of C not given here) [ISIS 101759]", "values": [
      {"measurement": "expression of human JNK2 in HuVEC cells", "setting": "human JNK2 mRNA [1]", "result": "capable of reducing the expression of human JNK2"},
      {"measurement": "expression of human JNK2 in HeLa cells", "setting": "human JNK2 mRNA [2]", "result": "capable of reducing the expression of human JNK2 in human HeLa cells in a dose-dependent manner"},
      {"measurement": "expression of human JNK2 in Jurkat cells", "setting": "human JNK2 mRNA [3]", "result": "capable of reducing the expression of human JNK2 in human Jurkat cells in a dose-dependent manner"}
    ]}
  ]
}
